Values after ≈ are worked out from the molar mass of the structure shown. Where a SMILES comes first, the peptide text is derived from it. The star is where a group is joined. Palmitoyl = CCCCCCCCCCCCCCCC(=O)*
Tests used:
Type in all cases: cell-based
[1] = system: Candida albicans (ATCC 10231)
[2] = system: human red blood cells; conditions: 1 h
Outline: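 Washed donor erythrocytes (4% v/v in PBS, EDTA-anticoagulated) incubated with graded lipopeptide concentrations for 1 h at 37 °C; hemoglobin release read at 550 nm in supernatants. Scaled between 0.1% Triton X-100 (100%) and PBS (0%); MHC is the lowest concentration giving 10% hemolysis.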

[3] = system: Pseudomonas aeruginosa (ATCC 9027); conditions: ATCC 9027, 24 h
[4] = system: Proteus vulgaris (PCM 2668); conditions: 24 h
[5] = system: Candida albicans (ATCC 10231); conditions: ATCC 10231, 48 h
Outline: (§1)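 Broth microdilution per CLSI: Mueller-Hinton broth, 10^5 cfu/mL inoculum, 18 h at 37°C for bacteria; Sabouraud dextrose broth, 10^3 cfu/mL, 48 h at 25°C for fungi. MIC (μg/mL) is the lowest lipopeptide concentration inhibiting visible growth; MBC/MFC also determined. Triplicate on three days.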

[6] = system: Klebsiella pneumoniae (ATCC 700603); conditions: for MBC Klebsiella pneumoniae, lipopeptides without TFA counter ion / MIC Klebsiella pneumoniae / MIC Klebsiella pneumoniae, lipopeptides without TFA counter ion: ATCC 700603, 18 h; for MBC Klebsiella pneumoniae: ATCC 700603, 24 h
Outline: as §1

[7] = system: Candida tropicalis (PCM 2681); conditions: PCM 2681, 48 h
Outline: as §1

[8] = system: Pseudomonas aeruginosa (ATCC 9027); conditions: ATCC 9027, 18 h
Outline: as §1

[9] = system: Bacillus subtilis (ATCC 6633); conditions: for MIC Bacillus subtillis: ATCC 6633, 18 h; for MBC Bacillus subtillis: ATCC 6633, 24 h
Outline: as §1

[10] = system: Staphylococcus aureus (ATCC 25923); conditions: for MBC Staphylococcus aureus, lipopeptides without TFA counter ion / MIC Staphylococcus aureus / MIC Staphylococcus aureus, lipopeptides without TFA counter ion: ATCC 25923, 18 h; for MBC Staphylococcus aureus: ATCC 25923, 24 h
Outline: as §1

[11] = system: Aspergillus brasiliensis (ATCC 16404); conditions: ATCC 16404, 48 h
Outline: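 CLSI broth microdilution: bacteria in Mueller-Hinton broth at 10^5 cfu/mL inoculum, 18 h at 37°C; fungi in Sabouraud Dextrose broth at 10^3 cfu/mL, 48 h at 25°C. MIC (μg/mL) is the lowest lipopeptide concentration inhibiting visible growth; triplicate on three days.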

[12] = system: Escherichia coli (ATCC 25922); conditions: for MBC Escherichia coli, lipopeptides without TFA counter ion / MIC Escherichia coli / MIC Escherichia coli, lipopeptides without TFA counter ion: ATCC 25922, 18 h; for MBC Escherichia coli: ATCC 25922, 24 h
Outline: as §1

[13] = system: Staphylococcus epidermidis (PCM 2118); conditions: for MIC Staphylococcus epidermidis: PCM 2118, 18 h; for MBC Staphylococcus epidermidis: PCM 2118, 24 h
Outline: as §1

[14] = system: Proteus vulgaris (PCM 2668); conditions: 18 h
Outline: as §1

[15] = system: Enterococcus faecalis (ATCC 29212); conditions: for MBC Enterococcus fecalis, lipopeptides without TFA counter ion / MIC Enterococcus fecalis / MIC Enterococcus fecalis, lipopeptides without TFA counter ion: ATCC 29212, 18 h; for MBC Enterococcus fecalis: ATCC 29212, 24 h
Outline: as §1

MIC Candida albicans [5] | MIC Klebsiella pneumoniae [6] | MIC Candida tropicalis [7] | MIC Pseudomonas aeruginosa [8] | MIC Bacillus subtillis [9] | MIC Staphylococcus aureus [10] | Structure (SMILES) | MFC Candida albicans, lipopeptides without TFA counter ion [1] | Hemolysis HC10 (MHC), concentration of lipopeptide inducing 10% of hemolysis [2] | MBC Pseudomonas aeruginosa [3] | MBC Proteus vulgaris [4] | MFC Candida albicans [5] | MIC Candida albicans, lipopeptides without TFA counter ion [5] | MBC Klebsiella pneumoniae, lipopeptides without TFA counter ion [6] | MIC Klebsiella pneumoniae, lipopeptides without TFA counter ion [6] | MBC Klebsiella pneumoniae [6] | MFC Candida tropicalis [7] | MBC Bacillus subtillis [9] | MBC Staphylococcus aureus, lipopeptides without TFA counter ion [10] | MIC Staphylococcus aureus, lipopeptides without TFA counter ion [10] | MBC Staphylococcus aureus [10] | other results
128 µg/mL (≈ 290 µM) | 128 µg/mL (≈ 290 µM) | 256 µg/mL (≈ 581 µM) | 256 µg/mL (≈ 581 µM) | 4 µg/mL (≈ 9.08 µM) | 8 µg/mL (≈ 18.2 µM) | CCCCCCCCCCCCCCCC(=O)N[C@@H](CCCCN)C(=O)NCC(N)=O [C16-KG-NH2] (Palmitoyl-Lys-Gly-NH2) | 128 µg/mL (≈ 290 µM) | 256 µg/mL | 1000 µg/mL (≈ 2270 µM) | >512 µg/mL | 128 µg/mL (≈ 290 µM) | 128 µg/mL (≈ 290 µM) | 256 µg/mL (≈ 581 µM) | 128 µg/mL (≈ 290 µM) | 256 µg/mL (≈ 581 µM) | 512 µg/mL (≈ 1160 µM) | 4 µg/mL (≈ 9.08 µM) | 4 µg/mL (≈ 9.08 µM) | 4 µg/mL (≈ 9.08 µM) | 8 µg/mL (≈ 18.2 µM) | MFC Aspergillus brasiliensis [11]: 512 µg/mL (≈ 1160 µM); MIC Aspergillus brasiliensis [11]: 512 µg/mL (≈ 1160 µM); MBC Escherichia coli, lipopeptides without TFA counter ion [12]: 256 µg/mL (≈ 581 µM); MIC Escherichia coli [12]: 256 µg/mL (≈ 581 µM); MIC Escherichia coli, lipopeptides without TFA counter ion [12]: 256 µg/mL (≈ 581 µM); MBC Escherichia coli [12]: 256 µg/mL (≈ 581 µM); MIC Staphylococcus epidermidis [13]: 4 µg/mL (≈ 9.08 µM); MBC Staphylococcus epidermidis [13]: 4 µg/mL (≈ 9.08 µM); MIC Proteus vulgaris [14]: >512 µg/mL; MBC Enterococcus fecalis, lipopeptides without TFA counter ion [15]: 8 µg/mL (≈ 18.2 µM); MIC Enterococcus fecalis [15]: 16 µg/mL (≈ 36.3 µM); MIC Enterococcus fecalis, lipopeptides without TFA counter ion [15]: 4 µg/mL (≈ 9.08 µM); MBC Enterococcus fecalis [15]: 16 µg/mL (≈ 36.3 µM)
128 µg/mL (≈ 265 µM) | 128 µg/mL (≈ 265 µM) | 256 µg/mL (≈ 529 µM) | 32 µg/mL (≈ 66.2 µM) | 4 µg/mL (≈ 8.27 µM) | 64 µg/mL (≈ 132 µM) | CCCCCCCCCCCCCC(=O)N[C@@H](CCCCN)C(=O)N[C@@H](CCCCN)C(N)=O [C14-KK-NH2] | 256 µg/mL (≈ 529 µM) | 128 µg/mL | 64 µg/mL (≈ 132 µM) | >512 µg/mL | 128 µg/mL (≈ 265 µM) | 256 µg/mL (≈ 529 µM) | 128 µg/mL (≈ 265 µM) | 128 µg/mL (≈ 265 µM) | 128 µg/mL (≈ 265 µM) | 256 µg/mL (≈ 529 µM) | 4 µg/mL (≈ 8.27 µM) | 64 µg/mL (≈ 132 µM) | 32 µg/mL (≈ 66.2 µM) | 64 µg/mL (≈ 132 µM) | MFC Aspergillus brasiliensis [11]: 256 µg/mL (≈ 529 µM); MIC Aspergillus brasiliensis [11]: 256 µg/mL (≈ 529 µM); MBC Escherichia coli, lipopeptides without TFA counter ion [12]: 64 µg/mL (≈ 132 µM); MIC Escherichia coli [12]: 64 µg/mL (≈ 132 µM); MIC Escherichia coli, lipopeptides without TFA counter ion [12]: 32 µg/mL (≈ 66.2 µM); MBC Escherichia coli [12]: 128 µg/mL (≈ 265 µM); MIC Staphylococcus epidermidis [13]: 4 µg/mL (≈ 8.27 µM); MBC Staphylococcus epidermidis [13]: 4 µg/mL (≈ 8.27 µM); MIC Proteus vulgaris [14]: >512 µg/mL; MBC Enterococcus fecalis, lipopeptides without TFA counter ion [15]: 32 µg/mL (≈ 66.2 µM); MIC Enterococcus fecalis [15]: 32 µg/mL (≈ 66.2 µM); MIC Enterococcus fecalis, lipopeptides without TFA counter ion [15]: 32 µg/mL (≈ 66.2 µM); MBC Enterococcus fecalis [15]: 64 µg/mL (≈ 132 µM)
512 µg/mL (≈ 1440 µM) | 64 µg/mL (≈ 180 µM) | >512 µg/mL | 128 µg/mL (≈ 360 µM) | 32 µg/mL (≈ 90 µM) | 64 µg/mL (≈ 180 µM) | CCCCCCCCCCCCCC(=O)N[C@@H](CCCCN)C(N)=O [C14-K-NH2] | 512 µg/mL (≈ 1440 µM) | 512 µg/mL | 1000 µg/mL (≈ 2810 µM) | >512 µg/mL | 512 µg/mL (≈ 1440 µM) | 512 µg/mL (≈ 1440 µM) | 512 µg/mL (≈ 1440 µM) | 64 µg/mL (≈ 180 µM) | 512 µg/mL (≈ 1440 µM) | >512 µg/mL | 32 µg/mL (≈ 90 µM) | 64 µg/mL (≈ 180 µM) | 64 µg/mL (≈ 180 µM) | 64 µg/mL (≈ 180 µM) | MFC Aspergillus brasiliensis [11]: 512 µg/mL (≈ 1440 µM); MIC Aspergillus brasiliensis [11]: 512 µg/mL (≈ 1440 µM); MBC Escherichia coli, lipopeptides without TFA counter ion [12]: 128 µg/mL (≈ 360 µM); MIC Escherichia coli [12]: 128 µg/mL (≈ 360 µM); MIC Escherichia coli, lipopeptides without TFA counter ion [12]: 64 µg/mL (≈ 180 µM); MBC Escherichia coli [12]: 128 µg/mL (≈ 360 µM); MIC Staphylococcus epidermidis [13]: 16 µg/mL (≈ 45 µM); MBC Staphylococcus epidermidis [13]: 16 µg/mL (≈ 45 µM); MIC Proteus vulgaris [14]: >512 µg/mL; MBC Enterococcus fecalis, lipopeptides without TFA counter ion [15]: 64 µg/mL (≈ 180 µM); MIC Enterococcus fecalis [15]: 64 µg/mL (≈ 180 µM); MIC Enterococcus fecalis, lipopeptides without TFA counter ion [15]: 64 µg/mL (≈ 180 µM); MBC Enterococcus fecalis [15]: 64 µg/mL (≈ 180 µM)

From PMC5285354, “Cationic Net Charge and Counter Ion Type as Antimicrobial Activity Determinant Factors of Short Lipopeptides” (Frontiers in Microbiology, 2017)
